Here are results for 17 compounds from US20130149757A1 (OPTINOL, INC., priority 2011, published 2013).

Data set [1] deals with strains of C. saccharoperbutylacetonium. Conditions: Keis et al, 2001; cited from earlier work.
Data set [2] in a line: Liquid-liquid extraction with corn oil (Karr extractor). It counts as physicochemical. On the procedure: Two runs were conducted, each with a different flow rate.
The subject of data set [3] is C. saccharoperbutylacetonium N1-504. Conditions: cited from earlier work.
The subject of a further data set is Novel organism. Description: Carbohydrate utilization screen. It counts as cell-based, Clostridium beijerinckii sp. optinoii. From the text: A full carbohydrate screen was run to test whether the organism is actually N1-504. […] Rather it falls closer to (but is not identical with) C. beijerinckii.
Data set [4] has as its system C. saccharoperbutylacetonium. Conditions: reported (Keis et al.); cited from earlier work.
The next data set concerns bacterial cells. Conditions: cited from earlier work.

Consider `O=C[C@@H](O)[C@H](O)[C@H](O)CO` [Arabinose], for which, in data set [1], the “Carbohydrate utilization, strains of C. saccharoperbutylacetonium generally” value (shortened to “Carbohydrate utilization, strains”) is recorded as “will utilize”.
For `OC[C@H]1O[C@H](O[C@H]2[C@H](O)[C@@H](O)[C@H](O)O[C@@H]2CO)[C@H](O)[C@@H](O)[C@@H]1O` [maltose], the “Carbohydrate utilization, strains” value in data set [1] is recorded as “will utilize”.
Consider `CC(C)O` [Isopropanol, isopropanol], for which the “% extraction, Run 1” value in data set [2] (flow rate feed 26 ml/min) is listed as 23.0%. For the same compound, the “% extraction, Run 2” value in data set [2] (flow rate feed 39 ml/min) amounted to 21.5%. Besides, in data set [2] (summary comment), the “extraction in this set up” value is “about 21%”.
On to `O[C@H]1[C@H](O)[C@@H](O)[C@H](O)[C@@H](O)[C@H]1O` [inositol], for which, in data set [3], the “Carbohydrate utilization, C. saccharoperbutylacetonium N1-504” value is on record as “will not utilize”.
In the case of `OC[C@@H](O)[C@H](O)[C@H](O)[C@@H](O)CO` [dulcitol], in data set [3], the “Carbohydrate utilization, C. saccharoperbutylacetonium N1-504” value was “will not utilize”.
On to dextrin, for which, in data set [1], the “Carbohydrate utilization, strains” value is on record as “will utilize”.
With `OC[C@H]1O[C@@H](O[C@H]2[C@H](O)[C@@H](O)C(O)O[C@@H]2CO)[C@H](O)[C@@H](O)[C@H]1O` (stereo partly drawn) [lactose], the “Carbohydrate utilization, strains” value in data set [1] is “will utilize”.
As to `OC[C@H]1O[C@@](CO)(O[C@H]2O[C@H](CO)[C@@H](O)[C@H](O)[C@H]2O)[C@@H](O)[C@@H]1O` [sucrose], the “Carbohydrate utilization, strains” value in data set [1] is listed as “will utilize”.
As for pectin, the “Carbohydrate utilization, strains” value in data set [1] is reported as “will utilize”.
As for inulin, the “Carbohydrate utilization, strains” value in data set [1] is “will utilize”.
For `O=C[C@H](O)[C@@H](O)[C@H](O)CO` [Xylose], the “Carbohydrate utilization, strains” value in data set [1] is listed as “will utilize”. Further, the “Carbohydrate utilization, Novel organism” value in the data set with Novel organism is “does not grow”.
For the compound `CO[C@H]1/C=C/O[C@@]2(C)Oc3c(C)c(O)c4c(O)c(c(/C=N/N5CCN(C)CC5)c(O)c4c3C2=O)NC(=O)/C(C)=C\C=C\[C@H](C)[C@H](O)[C@@H](C)[C@@H](O)[C@@H](C)[C@H](OC(C)=O)[C@@H]1C` [rifampin], the “resistance / inhibition of the organism” value in data set [4] is “resistant”.
For the compound glycogen, the “Carbohydrate utilization, strains” value in data set [1] was “will utilize”.
Regarding `OC[C@@H](O)[C@@H](O)[C@H](O)[C@@H](O)CO` [Sorbitol], the “Carbohydrate utilization, C. saccharoperbutylacetonium N1-504” value in data set [3] was “will not utilize”.
Regarding `O=C[C@H](O)[C@@H](O)[C@H](O[C@@H]1O[C@H](CO)[C@@H](O)[C@H](O)[C@H]1O)[C@H](O)CO` [Cellobiose], in data set [1], the “Carbohydrate utilization, strains” value was “will utilize”.
On to starch, for which the “Carbohydrate utilization, strains” value in data set [1] was “will utilize”.
Consider n-butanol, for which, in the data set on bacterial cells ([…] butanol), the inhibits growth is on record as roughly 100%. Also, in the data set on bacterial cells (butanol at a concentration of 1 percent), the “inhibits cell growth and fermentation” value was “about 20%”.
